Measurements: patent publication US9464064B2, “HCV helicase inhibitors and methods of use thereof” (University of Kansas, priority 2011, dated 2016)

Biological target: T1, HCV NS3 helicase NS3h_1b(con1) (Hepatitis C virus genotype 1b, UniProt Q9WMX2)
T1 construct: truncated C-terminally His-tagged NS3 proteins lacking the N-terminal protease, called NS3h; His-tag (C); made in house
Test: MBHA screen of NCI mechanistic set library at 20 μM (percent inhibition, compound interference)
Assay type: biochemical
Conditions: compounds at 20 μM; for Inh. (%) (Inhibition): calculated from Equation 1
Method in brief: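 Molecular beacon-based DNA unwinding assay; compounds screened at 20 μM in triplicate, with DMSO-only negative and 500 nM dT20 positive controls. Fluorescence (ex 643/em 670 nm) was read before and 30 min after adding ATP to 1 mM. Percent inhibition came from the change relative to DMSO controls; interference from pre-ATP fluorescence versus DMSO controls.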

[1] = MBHA with DNA substrate, assay interference calculated with Equation 2
[2] = assay interference calculated with Equation 2 (fluorescence vs DMSO-only controls before ATP)

T1 sequence (Q9WMX2 1192-1657): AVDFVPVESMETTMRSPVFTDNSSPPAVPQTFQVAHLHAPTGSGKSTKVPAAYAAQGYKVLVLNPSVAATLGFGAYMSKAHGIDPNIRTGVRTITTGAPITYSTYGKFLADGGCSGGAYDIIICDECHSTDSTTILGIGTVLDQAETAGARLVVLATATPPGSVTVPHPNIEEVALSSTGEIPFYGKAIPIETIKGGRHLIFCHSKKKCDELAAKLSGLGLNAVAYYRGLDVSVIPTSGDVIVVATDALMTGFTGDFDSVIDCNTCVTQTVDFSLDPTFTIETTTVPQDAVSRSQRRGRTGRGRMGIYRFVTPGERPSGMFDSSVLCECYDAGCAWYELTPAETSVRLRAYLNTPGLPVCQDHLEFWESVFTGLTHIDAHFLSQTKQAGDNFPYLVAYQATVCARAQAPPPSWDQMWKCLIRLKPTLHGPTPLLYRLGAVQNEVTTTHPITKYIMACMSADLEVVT

Int.* (Ratio) (Interference) [1] | Inh. (%) (Inhibition) (MBHA with DNA substrate) | Inh. (%) (Inhibition) (MBHA with a DNA substrate) | Int.* (Ratio) (Interference) [2] | Structure (SMILES)
1.12 | −10.6 |  |  | O=C(CC(=O)C(F)(F)F)c1csc2ccccc12 [Compound 80396]
 |  | −6.4 | 0.89 | OCC1OC(n2cnc3c(SCc4ccccc4)ncnc32)C(O)C1O (stereo not shown) [Compound 26273]
0.99 | −11.3 |  |  | Cc1nc(C(N)=S)sc1C(=O)CC(=O)C(=O)Nc1c(C(C)C)cccc1C(C)C [Compound 642048]
0.85 | 15.7 |  |  | CC(=O)/C(=C\c1cccc([N+](=O)[O-])c1)C(=O)Nc1ccccc1C [Compound 634658]
0.88 | 17.5 |  |  | Cc1cc(=O)[nH]c(NN2C(Cl)C(=O)C2c2cccc([N+](=O)[O-])c2)n1 (stereo not shown) [Compound 653010]
 |  | −28.8 | 1.16 | COc1cc2c(c(OC)c1OC)-c1ccc(OC)c(=O)cc1[C@@H](NC(=O)c1ccccc1)CC2 [Compound 33410]
0.56 | 56.5 |  |  | CC[C@@]1(O)C[C@H](O[C@H]2C[C@H](N(C)C)[C@H](O[C@H]3C[C@H](O)[C@H](O[C@H]4CCC(=O)[C@H](C)O4)[C@H](C)O3)[C@H](C)O2)c2c(cc3c(c2O)C(=O)c2c(O)cccc2C3=O)[C@@H]1C(=O)OC [Compound 208734]
0.99 | −17.3 |  |  | C=C1C(=O)OC2CC1C(OC(C)=O)C/C(C)=C/CC/C(C)=C\CCC2(C)O (stereo not shown) [Compound 36437]
1.03 | −8.6 |  |  | CN(C)c1cccc(F)c1C(=O)NC(=O)Nc1ccc(Cl)cc1 [Compound 603108]
0.70 | 76.4 |  |  | CCN(CC)CCN1C(=O)c2c(c3c4cccc(Cl)c4n(C4OC(CO)C(OC)C(O)C4O)c3c3[nH]c4c(Cl)cccc4c23)C1=O (stereo not shown) [Compound 640199]
0.91 | −13.1 |  |  | CN(Cc1cnc2nc(N)nc(N)c2n1)c1ccc(C(=O)NC(CCC(=O)O)C(=O)O)c2ccccc12 (stereo not shown) [Compound 174121]
0.67 | 34.3 |  |  | COc1cc2c[n+](C)c3c4cc5c(cc4ccc3c2cc1OC)OCO5 [Compound 146397]
 |  | 7.0 | 1.09 | N=N/C(=C\c1c(O)[nH]c2ccccc12)c1ccccc1 [Compound 175274]
 |  | −3.3 | 0.96 | COC(=O)C[S+]([O-])c1ccccc1 (stereo not shown) [Compound 620050]
1.15 | 0.2 |  |  | O=c1cnn(C2OC(CO)C(O)C2O)c(=S)[nH]1 (stereo not shown) [Compound 146268]
1.01 | −15.7 |  |  | O=Nc1ccc(O)c2ncccc12 [Compound 3852]
0.82 | 21.9 |  |  | O=c1oc2ccccc2cc1-c1ccc([N+](=O)[O-])cc1 [Compound 215989]
0.89 | 33.3 |  |  | S=C1Nc2cnc3ccccc3c2SC1c1ccccc1 (stereo not shown) [Compound 667467]
 |  | 9.2 | 0.49 | NC(N)=NCCCS(=O)(=O)Nc1ccc(Nc2c3ccccc3nc3cc([N+](=O)[O-])ccc23)cc1 [Compound 177365]
0.96 | −1.6 |  |  | CNC(=O)c1cc(NC(=O)N(CCC#N)CCN(C(=O)N[C@@H](Cc2ccccc2)C(=O)N[C@@H](CC(C)C)C(=O)NC)c2ccccc2)ccc1OC [Compound 688363]
1.12 | 2.2 |  |  | COc1ccc(OC)c(-c2cc(=O)c3c(OC)c(OC)c(OC)c(OC)c3o2)c1 [Compound 71300]
 |  | −3.8 | 0.97 | O=C1C=C(Nc2cccnc2)c2ccccc2C1=O [Compound 637729]
 |  | −22.9 | 1.07 | COC1=C(N)C(=O)c2nc(C)ccc2C1=O [Compound 132493]

Int.* (Ratio) (Interference) [1] | Inh. (%) (Inhibition) (MBHA with DNA substrate) | Inh. (%) (Inhibition) (MBHA with a DNA substrate) | Int.* (Ratio) (Interference) [2] | Structure (SMILES)
1.12 | −9.4 |  |  | C[C@H](CN1CC(=O)NC(=O)C1)N1CC(=O)NC(=O)C1 [Compound 169779]
0.98 | 4.7 |  |  | CCCCOc1ccc(NC(N)=Nc2ccc(Cl)cc2)cc1 [Compound 78365]
 |  | 10.6 | 1.09 | CN(C)C[C@H]1CC[C@@H](CN(C)C)C1=O.Cl.Cl [Compound 640391]
0.50 | 38.3 |  |  | COc1ccc2cc1Oc1ccc(cc1)CC1c3c(cc(OC)c4c3Oc3cc5c(cc3O4)CCNC5C2)CCN1C (stereo not shown) [Compound 181486]
 |  | −31.9 | 0.93 | CCc1cccc(CC)c1NC(=O)C(C#N)C1=C(Cl)C(=O)c2ccccc2C1=O (stereo not shown) [Compound 634503]
 |  | −4.0 | 1.05 | Nc1ncnc2c1nc(Cl)n2[C@@H]1O[C@@H]2COP(=O)(O)O[C@H]2[C@H]1O [Compound 284751]
1.11 | −12.7 |  |  | CN(CCc1ccccn1)c1ccc2c(c1)C(=O)c1ccccc1-2 [Compound 24048]
0.82 | 25.5 |  |  | CC(=O)C(N1CCCCC1)C(O)(C(F)(F)F)C(F)(F)F (stereo not shown) [Compound 664327]
0.90 | 4.4 |  |  | Cc1ccccc1NC(=O)C(=O)C(C#N)c1ccccc1C (stereo not shown) [Compound 636132]
1.07 | −2.1 |  |  | O=C1C2=Nc3ccccc3C(O)N2c2ccccc21 (stereo not shown) [Compound 292147]
1.06 | 12.3 |  |  | CCOC(=O)Cc1cc(=O)oc2cc(O)ccc12 [Compound 667235]
0.89 | 13.6 |  |  | C/C=C(\CCC1NCCc2c1[nH]c1ccccc21)[Si](C)(C)C (stereo not shown) [Compound 619165]
0.96 | −13.0 |  |  | N#CC(C#N)=Cc1ccc(Oc2ccccc2)cc1 [Compound 643028]
1.14 | −18.3 |  |  | CCOC(=O)Nc1nc2ccc(Cn3cccc3)cc2[nH]1 [Compound 639754]
1.02 | −2.2 |  |  | CN(C)c1ccc(/C=C2\CCc3ccccc3C2=O)cc1Br [Compound 643162]
1.15 | 1.1 |  |  | C[C@@H](N)C(=O)NC(CO)C(O)C(N)C=O.Cl (stereo partly shown) [Compound 278619]
1.01 | 3.7 |  |  | NC(=O)NO [Compound 32065]
 |  | −4.2 | 1.11 | CC1=CC(C)(C)N=C2SC(c3ccc(N)cc3)=NN12 [Compound 640624]
 |  | −25.9 | 0.91 | OCCOc1ccc(-c2cc(-c3ccccn3)nc(-c3ccccn3)c2)cc1 [Compound 640499]
0.28 | 31.8 |  |  | Cc1cc2cc3cc(C)c(N)cc3nc2cc1N [Compound 13973]
0.87 | 28.4 |  |  | Nc1nc(N)c2cc(Sc3cccc(C(F)(F)F)c3)ccc2n1 [Compound 305782]
1.06 | 1.7 |  |  | CCCCCCCCCCCCC(O)C(=O)O (stereo not shown) [Compound 18938]

Structure (SMILES) | Int.* (Ratio) (Interference) [1] | Inh. (%) (Inhibition) (MBHA with DNA substrate) | Inh. (%) (Inhibition) (MBHA with a DNA substrate) | Int.* (Ratio) (Interference) [2]
COC(=O)C1=C(C(=O)OC)SC2(S1)C(C(=O)OC)=C(C(=O)OC)Sc1c2ssc1=O [Compound 686349] | 0.85 | −14.4 |  | 
COc1cc2c(cc1O)N=CC1CCC(O)N1C2=O (stereo not shown) [Compound 285223] |  |  | −26.2 | 1.01
NC(=O)c1cn(C2OC(CO)C(O)C2O)c2ncnc(N)c12 (stereo not shown) [Compound 65346] | 0.92 | 0.0 |  | 
Fc1cccc(F)c1C1SCc2nc3ccccc3n21 (stereo not shown) [Compound 625487] | 1.01 | −0.1 |  | 
O=C([O][Hg][CH2]C1COC([CH2][Hg][O]C(=O)c2ccccc2)CO1)c1ccccc1 (stereo not shown) [Compound 30916] | 0.93 | 19.0 |  | 
C[n+]1ccc(-c2cc[n+](C)cc2)cc1.[Cl-].[Cl-] [Compound 263500] | 1.18 | −8.7 |  | 
C=Cc1cc(OC)c2c(c1)c(=O)oc1c2cc(OC)c2c(O)ccc(C3OC(C)C(O)C(C)(O)C3O)c21 (stereo not shown) [Compound 354844] | 0.93 | 32.6 |  | 
COc1ccc(-c2cc(=O)c3c(OC)c(OC)c(OC)cc3o2)cc1 [Compound 53908] | 0.82 | 26.0 |  | 
COc1ccc(C[C@@H]2NC[C@@H](O)[C@@H]2OC(C)=O)cc1.Cl [Compound 147340] |  |  | −5.2 | 1.01
COc1ccc(C2C=C(c3ccc4c(c3)OCO4)Oc3c2c(=O)oc2ccccc32)cc1OC (stereo not shown) [Compound 211489] |  |  | −30.1 | 0.82
COc1cc(C2c3cc4c(cc3C(O)C3COC(=O)C23)OCO4)cc(OC)c1OC (stereo not shown) [Compound 24818] | 1.07 | −2.7 |  | 
